The target of this experiment is T1, human-liver type GST-GK (Homo sapiens, UniProt P35557).
T1 construct: made in house; host or cells: E. coli
T1 sequence (P35557 1-466 isoform P35557-2): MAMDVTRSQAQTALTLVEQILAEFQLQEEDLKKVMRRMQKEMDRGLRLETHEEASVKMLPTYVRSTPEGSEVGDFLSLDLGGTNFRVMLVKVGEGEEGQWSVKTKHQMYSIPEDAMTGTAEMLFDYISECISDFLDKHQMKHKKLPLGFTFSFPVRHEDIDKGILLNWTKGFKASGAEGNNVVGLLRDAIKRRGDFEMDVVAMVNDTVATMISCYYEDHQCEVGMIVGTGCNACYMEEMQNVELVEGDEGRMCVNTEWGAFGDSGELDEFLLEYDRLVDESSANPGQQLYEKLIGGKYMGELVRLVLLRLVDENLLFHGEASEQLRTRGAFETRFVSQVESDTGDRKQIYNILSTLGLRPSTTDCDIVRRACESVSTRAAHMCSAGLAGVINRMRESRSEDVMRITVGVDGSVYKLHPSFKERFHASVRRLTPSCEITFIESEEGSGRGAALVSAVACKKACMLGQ
The experiment is described as follows: Glucokinase activation effect (G6PDH-coupled NADPH assay). It is filed as biochemical. As to conditions: 5 mM glucose, 5 mM ATP, 30° C., absorbance 340 nm for 15 minutes, 5% DMSO. On the procedure: A glucokinase activity was examined by measuring the amount of NADPH obtained in generating 6-phosphogluconic acid from glucose-6-phosphoric acid by a coupling enzyme glucose-6-phosphate dehydrogenase not by measuring directly the produced glucose-6-phosphoric acid. The glucokinase enzyme used in the examination is human-liver type GST-GK expressed in E. Coli. The measurement of GK activity was carried out by the following procedures.
Twenty five mM HEPES buffer (pH7.4) containing 25 mM MgCl2, […], 1 mM DTT, 5 mM NADP (Roche), 16.64 μg/mL G6PDH (Roche 737-232 grade II from yeast) and 2.8 μg/mL GST-GK was prepared as a reaction solution. An evaluating compound dissolved in DMSO was added to the reaction solution to give final concentration of 0.001 to 100 μM (5% DMSO). Thereto was added glucose (final concentration of 5 mM) as a substrate and was added ATP (final concentration of 5 mM), and the reaction was started. The reaction temperature is 30° C. and a generation of NADPH was monitored by changes of absorbance of 340 nm. An increasing in absorbance for 15 minutes from starting reaction was measured and the blank-corrected value was used as GK activity (mOD/min). EC50 level was calculated by a GK activity level in at each concentration of an evaluating compound.
Turning to `O=C(Nc1ncc(F)s1)/C(=N/O[C@@H]1CCOC1)c1ccc(S(=O)(=O)NCCF)cc1` [Example 82-78], a half-maximal response (EC50) required 600 nM.

With `CNCCOc1ccc2nc(NC(=O)/C(=N/O[C@@H]3CCOC3)c3ccc(S(=O)(=O)NCCO)cc3)sc2n1` [Example 139-244], the EC50 stood at 460 nM.

Take `COCCCS(=O)(=O)c1ccc(/C(=N\O[C@@H]2CCOC2)C(=O)Nc2nc3ccc(OCCO)cc3s2)cc1` [Example 139-214]: the EC50 came to 570 nM. This EC50 and that of the compound before are within 1.5-fold of each other.

The compound `CN(C)CCOc1ccc2nc(NC(=O)/C(=N/O[C@@H]3CCOC3)c3ccc(S(=O)(=O)C4CC4)cc3)sc2n1` [Example 13-3] returned a 50% effective concentration (EC50) of 170 nM.

In turn, `CNc1ccc2nc(NC(=O)/C(=N/O[C@@H]3CCOC3)c3ccc(S(=O)(=O)CCCOC)cc3)sc2n1` [Example 139-221] yielded an EC50 of 130 nM.

Turning to `C[C@@H](CO)O/N=C(/C(=O)Nc1ncc(Cl)s1)c1ccc(S(=O)(=O)C2CC2)cc1` [Example 104-2], the EC50 worked out at 300 nM.

`O=C(O)CCSc1cnc(NC(=O)/C(=N/O[C@@H]2CCOC2)c2ccc(S(=O)(=O)C3CC3)cc2)s1` [Example 46-1] had a half-maximal effective concentration (EC50) of 100 nM.

As for `COCCCS(=O)(=O)c1ccc(/C(=N\O[C@@H]2CCOC2)C(=O)Nc2ncc(COC)s2)cc1` [Example 98-1], a half-maximal response (EC50) required 840 nM.

Take `COCC(=O)N1[C@H](C)CN(Cc2cnc(NC(=O)/C(=N/O[C@@H]3CCOC3)c3ccc(S(=O)(=O)C4CC4)cc3)s2)C[C@@H]1C` [Example 11]: it took 880 nM to reach a half-maximal effect (EC50).

With `O=C1CN(Cc2cnc(NC(=O)/C(=N/O[C@@H]3CCOC3)c3ccc(S(=O)(=O)C4CC4)cc3)s2)CCN1` [Example 6], the concentration giving a half-maximal response (EC50) is 1200 nM. This EC50 and that of the compound before are within 1.5-fold of each other.

Consider `COCCCS(=O)(=O)c1ccc(/C(=N\OC2CCCC2)C(=O)Nc2ccc(C(N)=O)cn2)cc1` [Example 139-159], for which the concentration for a half-maximal effect (EC50) came to 520 nM.

The compound `CC(=O)N1CCN(Cc2cnc(NC(=O)/C(=N/O[C@@H]3CCOC3)c3ccc(S(=O)(=O)[C@H]4CCOC4)cc3)s2)C[C@H]1C` [Example 139-237] showed an EC50 of 600 nM.

On to `COCCCS(=O)(=O)c1ccc(/C(=N\OCc2ncccn2)C(=O)Nc2nc3ccc(OC)nc3s2)cc1` [Example 139-134], for which the EC50 is 180 nM.

The compound `O=C(Nc1nccs1)/C(=N/OCc1ccccn1)c1ccc(S(=O)(=O)C2CC2)cc1` [Example 94-6] came in with an EC50 of 510 nM.

Take `Cn1ccc(CO/N=C(/C(=O)Nc2ncc(F)s2)c2ccc(S(=O)(=O)C3CC3)cc2)n1` [Example 62-10]: the EC50 was 270 nM.

For `COCCCS(=O)(=O)c1ccc(/C(=N\O[C@@H]2CCOC2)C(=O)Nc2nc3ccc(OCCO)nc3s2)cc1` [Example 98-7], the EC50 stood at 230 nM.

`COc1cnc(NC(=O)/C(=N/O[C@@H]2CC[C@@H](OC)C2)c2ccc(S(=O)(=O)C3CC3)cc2)cn1` [Example 139-41]: the response was half-maximal at 540 nM (EC50).

`O=C(Nc1ncc(F)s1)/C(=N/OCc1ncccn1)c1ccc(S(=O)(=O)C2CC2)cc1` [Example 62-5] displayed an EC50 of 410 nM.

With `O=C(Nc1ncc(F)s1)/C(=N/OCCCO)c1ccc(S(=O)(=O)C2CC2)cc1` [Example 67-2], the 50% effective concentration (EC50) came to 390 nM.

As for `CC(=O)N1CCN(Cc2cnc(NC(=O)/C(=N/O[C@@H]3CCOC3)c3ccc(S(=O)(=O)C4CC4)cc3)s2)C[C@@H]1C` [Example 9], the midpoint of the response, the EC50, lay at 550 nM. The EC50 values of the last two compounds are within 1.5-fold of each other.

The compound `COCCCS(=O)(=O)c1ccc(/C(=N\O[C@@H]2CC[C@@H](O)C2)C(=O)Nc2ncc(C)s2)cc1` [Example 139-182] yielded an EC50 of 520 nM.

In the case of `O=C(Nc1ncc(F)s1)/C(=N/O[C@@H]1CCOC1)c1ccc(S(=O)(=O)N2CCCOCC2)cc1` [Example 82-22], a half-maximal effect (EC50) was put at 260 nM.

As to `O=C(Nc1ncc(CN2CCOCC2)s1)/C(=N/O[C@@H]1CCOC1)c1ccc(S(=O)(=O)C2CC2)cc1` [Example 18-2], the EC50 is 930 nM.

As for `CC(=O)N1CCC(OCc2cnc(NC(=O)/C(=N/O[C@@H]3CCOC3)c3ccc(S(=O)(=O)C4CC4)cc3)s2)CC1` [Example 56], the concentration for a half-maximal effect (EC50) came out at 320 nM.

As for `Cn1ccnc1CS(=O)(=O)c1ccc(/C(=N\O[C@@H]2CCOC2)C(=O)Nc2ncc(F)s2)cc1` [Example 84-12], a half-maximal effect (EC50) was put at 410 nM.

As to `Cc1nsc(NC(=O)/C(=N/O[C@@H]2CC[C@@H](O)C2)c2ccc(S(=O)(=O)C3CC3)cc2)n1` [Example 116], the EC50 worked out at 570 nM.

Turning to `COCCN(C)S(=O)(=O)c1ccc(/C(=N\O[C@@H]2CCOC2)C(=O)Nc2ncc(CN3CCN(C)CC3)s2)cc1` [Example 139-125], the EC50 was 760 nM.

As to `CC(=O)N1CCN(Cc2cnc(NC(=O)/C(=N/O[C@@H]3CCOC3)c3ccc(S(=O)(=O)C4CC4)cc3)s2)CC1` [Example 10], the midpoint of the response, the EC50, lay at 790 nM. The EC50 values of the last two compounds are within 1.5-fold of each other.

In turn, `CCN(CCO)S(=O)(=O)c1ccc(/C(=N\O[C@@H]2CCOC2)C(=O)Nc2cnc(C3CC3)cn2)cc1` [Example 139-94] yielded a concentration for a half-maximal effect (EC50) of 350 nM.

Regarding `COc1ccc2nc(NC(=O)/C(=N/O[C@@H]3CCOC3)c3ccc(S(=O)(=O)C4CC4)cc3)sc2n1` [Example 24-25], the half-maximal effective concentration (EC50) is 84 nM. Against the preceding compound, the EC50 is about 4.2-fold lower.

With `CS(=O)(=O)c1ccc(/C(=N\OC2CCCC2)C(=O)Nc2ncc(C(N)=O)s2)cc1` [Example 91-8], the concentration for a half-maximal effect (EC50) amounted to 520 nM. This EC50 lies about 6.2-fold higher than the previous one.
